Common to all, as to type: biochemical
Assay [1] has as its target human JAK1 (a.a. 837-1142) catalytic domain (Homo sapiens, UniProt P23458). Description: In vitro JAK kinase assay (HTRF), JAK1. Conditions: 90 μM ATP, 500 nM peptide, room temperature 1 hr. On the procedure: (§1) One or more compounds herein were tested for inhibitory activity of JAK targets according to the following in vitro assay described in Park et al., Analytical Biochemistry 1999, 269, 94-104. The catalytic domains of human JAK1 (a.a. 837-1142), JAK2 (a.a. 828-1132) and JAK3 (a.a. 781-1124) with an N-terminal His tag were expressed using baculovirus in insect cells and purified. The catalytic activity of JAK1, JAK2 or JAK3 was assayed by measuring the phosphorylation of a biotinylated peptide. The phosphorylated peptide was detected by homogenous time resolved fluorescence (HTRF). […] The ATP concentration in the reactions was 90 μM for JAK1, 30 μM for JAK2 and 3 μM for JAK3. Reactions were carried out at room temperature for 1 hr and then stopped with 20 μL 45 mM EDTA, 300 nM SA-APC, 6 nM Eu-Py20 in assay buffer (Perkin Elmer, Boston, Mass.). Binding to the Europium labeled antibody took place for 40 minutes and HTRF signal was measured on a Fusion plate reader (Perkin Elmer, Boston, Mass.).

Assay [2] deals with human JAK2 (a.a. 828-1132) catalytic domain (Homo sapiens (Human), UniProt O60674). Description: In vitro JAK kinase assay (HTRF), JAK2. On the procedure:
One or more compounds herein were tested for inhibitory activity of JAK targets according to the following in vitro assay described in Park et al., Analytical Biochemistry 1999, 269, 94-104. The catalytic domains of human JAK1 (a.a. 837-1142), JAK2 (a.a. 828-1132) and JAK3 (a.a. 781-1124) with an N-terminal His tag were expressed using baculovirus in insect cells and purified. The catalytic activity of JAK1, JAK2 or JAK3 was assayed by measuring the phosphorylation of a biotinylated peptide. The phosphorylated peptide was detected by homogenous time resolved fluorescence (HTRF). […] Binding to the Europium labeled antibody took place for 40 minutes and HTRF signal was measured on a Fusion plate reader (Perkin Elmer, Boston, Mass.).
On the technique in general: TR-FRET usually uses a lanthanide donor and a delayed reading to cut background.

The target of assay [3] is human JAK3 (a.a. 781-1124) catalytic domain (Homo sapiens (Human), UniProt P52333). The assay is described as follows: In vitro JAK kinase assay (HTRF), JAK3. Conditions: 3 μM ATP, 500 nM peptide, room temperature 1 hr. On the procedure:
as §1

A further assay addresses TYK2 (Homo sapiens (Human), UniProt P29597). Description: TYK2 assay (as described by Thompson et al.). From the text:
The invention will be described in greater detail by way of specific examples. The following examples are offered for illustrative purposes, and are not intended to limit the invention in any manner. Those of skill in the art will readily recognize a variety of non-critical parameters which can be changed or modified to yield essentially the same results. In some instances where the compounds of the examples were isolated by preparative HPLC in the presence of trifluoroacetic acid (TFA) or other acid, the compound may have been obtained as the corresponding salt. […] Certain compounds described in Tables 1 and in the Example section were tested for inhibitory activity of JAK/ALK targets according to assays such as those described herein or those known in the art [e.g., ALK assays described in WO 04/079326; and TYK2 assays described by James E. Thompson et. al, “Photochemical preparation of a pyridone containing tetracycle: A JAK protein kinase inhibitor,” Bioorganic & Medicinal Chemistry Letters, Volume 12, Issue 8, 22 Apr. 2002, Pages 1219-1223]. […] Some exemplary data of the compounds of the invention are shown in Table 1 in the experimental section.

Assay [4] addresses Recombinant Human Anaplastic Lymphoma Kinase (Homo sapiens (Human), UniProt Q9UM73). The assay is described as follows: ALK HTRF kinase assay. Conditions: 90 μM ATP, 0.25 nM enzyme, 2 hours at 25° C. On the procedure: Materials: Recombinant Human Anaplastic Lymphoma Kinase was purchased from Invitrogen, Carlsbad, Calif. Peptide substrate (Biotin-[…]-amide) was custom synthesized at EZBiolab, Westfield, Ind. Streptavidin conjugated SureLight-Allophycocyania and LANCE Eu-W1024 labeled anti-phosphotyrosine antibody were from Perkin-Elmer, Boston, Mass. Microplates were from Corning Inc., Acton, Mass. All other reagents were from Sigma, St. Louis, Mo.
HTRF kinase assay: 40 μL reactions were run in black 384 well polystyrene plates in assay buffer (50 mM Tris, pH 7.8, 100 mM NaCI, 0.1 mg/mL BSA, 5 mM DTT), containing 0.5 μM Biotinylated peptide substrate, 10 mM MgCl2, 90 μM ATP, and 0.25 nM enzyme for 2 hours at 25° C. Reactions were stopped by addition of 20 μL assay buffer supplemented with an additional 50 mM NaCl, 0.4 mg/mL BSA, 45 mM EDTA, 4.5 nM LANCE Eu-W1024 labeled anti-phosphotyrosine antibody and 200 nM streptavidin conjugated SureLight-allophycocyanin. Plates were read in Fusion α-FP instrument (Perkin-Elmer). The concentrations needed to reach 50% inhibition, the IC50 value, were determined by fitting the assay signal to the following equation using Graphpad Prizm. Signal=Bottom+(Top−Bottom)/(1+10^((Log(IC50)−Log [I])*Hill Slope) Bottom and Top refer to the post and pre-transition baselines, respectively.

The mark [5] stands for this setting: 30 μM ATP, 500 nM peptide, room temperature 1 hr.

Structures can show the parent of a compound that is named as a salt. Where two headings read alike, the source gives them in different places.

The text below walks through data of US8765727B2, “Macrocyclic compounds and their use as kinase inhibitors” (Incyte Corporation, priority 2009, dated 2014).

TYK2, sequence (P29597 whole entry, species assumed): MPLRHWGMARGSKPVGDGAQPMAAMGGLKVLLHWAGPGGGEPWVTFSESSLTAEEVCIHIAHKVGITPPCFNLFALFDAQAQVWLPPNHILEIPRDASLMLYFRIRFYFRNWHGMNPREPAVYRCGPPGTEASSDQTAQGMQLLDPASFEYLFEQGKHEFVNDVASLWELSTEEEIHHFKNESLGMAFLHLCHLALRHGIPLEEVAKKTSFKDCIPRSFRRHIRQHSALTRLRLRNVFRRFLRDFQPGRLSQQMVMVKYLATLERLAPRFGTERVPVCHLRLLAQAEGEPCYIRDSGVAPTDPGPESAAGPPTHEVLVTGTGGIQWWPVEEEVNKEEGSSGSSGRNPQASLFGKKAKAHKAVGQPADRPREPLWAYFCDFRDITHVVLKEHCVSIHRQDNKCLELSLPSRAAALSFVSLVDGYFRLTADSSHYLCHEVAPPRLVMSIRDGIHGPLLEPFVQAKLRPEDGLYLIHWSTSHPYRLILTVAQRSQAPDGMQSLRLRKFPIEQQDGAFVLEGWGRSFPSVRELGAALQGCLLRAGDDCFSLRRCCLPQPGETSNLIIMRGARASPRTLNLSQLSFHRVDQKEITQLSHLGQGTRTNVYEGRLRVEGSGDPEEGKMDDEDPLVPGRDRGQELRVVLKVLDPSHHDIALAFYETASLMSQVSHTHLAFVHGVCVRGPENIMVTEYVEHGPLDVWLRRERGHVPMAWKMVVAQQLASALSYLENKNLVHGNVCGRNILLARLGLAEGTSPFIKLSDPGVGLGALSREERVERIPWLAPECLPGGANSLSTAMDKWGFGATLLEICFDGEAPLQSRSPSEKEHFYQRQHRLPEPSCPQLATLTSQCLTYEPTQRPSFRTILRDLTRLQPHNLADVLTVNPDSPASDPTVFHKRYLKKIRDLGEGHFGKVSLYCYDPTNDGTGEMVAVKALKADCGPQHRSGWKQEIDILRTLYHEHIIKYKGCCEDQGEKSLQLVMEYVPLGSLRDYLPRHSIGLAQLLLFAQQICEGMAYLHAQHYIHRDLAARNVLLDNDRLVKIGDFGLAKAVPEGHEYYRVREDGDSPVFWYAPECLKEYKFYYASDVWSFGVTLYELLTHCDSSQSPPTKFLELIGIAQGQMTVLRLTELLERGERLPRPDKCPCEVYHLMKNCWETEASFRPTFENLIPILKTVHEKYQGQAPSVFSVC
Recombinant Human Anaplastic Lymphoma Kinase, sequence (Q9UM73 19-1620): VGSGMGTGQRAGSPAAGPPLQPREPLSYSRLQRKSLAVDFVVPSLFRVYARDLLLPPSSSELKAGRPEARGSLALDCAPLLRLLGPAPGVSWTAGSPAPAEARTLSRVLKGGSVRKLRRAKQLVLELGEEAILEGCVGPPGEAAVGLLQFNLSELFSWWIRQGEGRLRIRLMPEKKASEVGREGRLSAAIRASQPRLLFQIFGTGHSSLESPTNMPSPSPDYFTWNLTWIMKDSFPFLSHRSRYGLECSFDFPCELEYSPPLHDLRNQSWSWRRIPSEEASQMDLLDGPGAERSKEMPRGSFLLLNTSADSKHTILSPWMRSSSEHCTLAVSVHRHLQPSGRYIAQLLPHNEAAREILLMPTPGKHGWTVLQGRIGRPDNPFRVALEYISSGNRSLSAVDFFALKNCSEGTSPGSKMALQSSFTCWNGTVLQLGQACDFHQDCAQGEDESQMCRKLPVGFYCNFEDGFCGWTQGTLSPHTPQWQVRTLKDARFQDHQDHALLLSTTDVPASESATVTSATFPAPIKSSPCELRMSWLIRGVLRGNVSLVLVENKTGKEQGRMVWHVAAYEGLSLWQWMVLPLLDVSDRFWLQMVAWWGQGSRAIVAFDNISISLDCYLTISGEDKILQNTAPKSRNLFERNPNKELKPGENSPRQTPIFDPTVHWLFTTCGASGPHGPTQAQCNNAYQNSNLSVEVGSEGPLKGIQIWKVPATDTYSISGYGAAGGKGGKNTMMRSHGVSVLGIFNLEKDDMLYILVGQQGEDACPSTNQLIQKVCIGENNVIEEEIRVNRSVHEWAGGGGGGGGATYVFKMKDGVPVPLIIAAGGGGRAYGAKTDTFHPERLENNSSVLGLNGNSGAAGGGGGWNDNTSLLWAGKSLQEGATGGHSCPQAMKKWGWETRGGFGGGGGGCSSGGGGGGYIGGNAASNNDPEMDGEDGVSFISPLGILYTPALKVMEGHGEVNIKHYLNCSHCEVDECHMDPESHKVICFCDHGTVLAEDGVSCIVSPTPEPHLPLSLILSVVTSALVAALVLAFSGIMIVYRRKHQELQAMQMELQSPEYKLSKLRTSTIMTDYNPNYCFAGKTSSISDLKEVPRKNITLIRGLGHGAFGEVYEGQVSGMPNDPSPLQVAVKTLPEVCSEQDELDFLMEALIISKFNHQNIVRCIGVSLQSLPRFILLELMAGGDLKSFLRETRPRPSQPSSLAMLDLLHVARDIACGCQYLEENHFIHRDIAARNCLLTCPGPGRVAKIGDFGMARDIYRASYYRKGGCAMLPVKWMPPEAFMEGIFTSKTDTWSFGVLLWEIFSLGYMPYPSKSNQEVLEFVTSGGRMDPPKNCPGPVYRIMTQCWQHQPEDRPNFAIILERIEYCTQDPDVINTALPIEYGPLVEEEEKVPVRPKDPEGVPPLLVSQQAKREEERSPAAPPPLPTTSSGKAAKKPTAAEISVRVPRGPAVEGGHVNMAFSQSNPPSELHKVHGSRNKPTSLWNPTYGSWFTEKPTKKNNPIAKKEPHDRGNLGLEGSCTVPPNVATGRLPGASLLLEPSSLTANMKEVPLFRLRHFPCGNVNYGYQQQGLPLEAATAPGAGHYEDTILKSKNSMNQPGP
human JAK2 (a.a. 828-1132) catalytic domain, sequence (O60674 828-1132): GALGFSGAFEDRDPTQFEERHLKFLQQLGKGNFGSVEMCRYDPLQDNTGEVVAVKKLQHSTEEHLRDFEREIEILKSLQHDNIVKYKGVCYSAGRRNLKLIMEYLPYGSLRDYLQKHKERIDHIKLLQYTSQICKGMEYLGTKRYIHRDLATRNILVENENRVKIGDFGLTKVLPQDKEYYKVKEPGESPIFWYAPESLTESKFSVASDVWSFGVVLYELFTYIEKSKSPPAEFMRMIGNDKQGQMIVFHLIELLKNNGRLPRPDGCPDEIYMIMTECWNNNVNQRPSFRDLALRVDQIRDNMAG
human JAK3 (a.a. 781-1124) catalytic domain, sequence (P52333 781-1124): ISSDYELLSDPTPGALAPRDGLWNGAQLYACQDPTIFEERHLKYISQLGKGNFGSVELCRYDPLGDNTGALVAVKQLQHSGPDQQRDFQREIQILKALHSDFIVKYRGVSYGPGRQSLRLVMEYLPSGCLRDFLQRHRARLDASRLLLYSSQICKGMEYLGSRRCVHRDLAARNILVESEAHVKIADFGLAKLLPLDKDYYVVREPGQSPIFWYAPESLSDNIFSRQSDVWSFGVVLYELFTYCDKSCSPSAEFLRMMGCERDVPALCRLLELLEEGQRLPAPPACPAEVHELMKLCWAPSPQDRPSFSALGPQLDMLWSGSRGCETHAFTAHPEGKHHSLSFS

For the compound `N#Cc1ccccc1S(=O)(=O)Nc1ccc2cc1CCc1cncc(c1)Nc1ncc(Cl)c(n1)NC2` [Example 19, N-[6-Chloro-2,4,8,19,23-pentaazatetracyclo[15.3.1.1(3,7).1(10,14)]tricosa-1(21),3(23),4,6,10(22),11,13,17,19-nonaen-13-yl]-2-cyanobenzenesulfonamide bis(trifluoroacetate)], the IC50 (in assay [1]; in assay [2] (setting [5]); in assay [3]; against TYK2; in assay [4]) was more than 1000 nM in each case.
Turning to `Clc1cnc2nc1NCCCc1cccc(c1)OCc1cccc(c1)N2` [Example 10, 20-Chloro-9-oxa-2,18,22,23-tetraazatetracyclo[17.3.1.1(3,7).1(10,14)]pentacosa-1(23),3(25),4,6,10(24),11,13,19,21-nonaene], the IC50 (in general, the concentration needed to halve the response being measured) in assay [1] was 122 nM; in assay [2] (setting [5]), 117 nM; in assay [3], 180 nM; against TYK2 it was 237 nM; in assay [4] it was more than 1000 nM.
For `C[C@@H]1Nc2nc(ncc2Cl)Nc2cccc(c2)COc2cccc1c2` [Example 11, (9S)-6-Chloro-9-methyl-15-oxa-2,4,8,23-tetraazatetracyclo[15.3.1.1(3,7).1(10,14)]tricosa-1(21),3(23),4,6,10(22),11,13,17,19-nonaene trifluoroacetate] the same measures were more than 1000 nM, more than 1000 nM, more than 1000 nM, more than 1000 nM and more than 10000 nM.
The corresponding values for `Nc1ccc2cc1CCc1cncc(c1)Nc1ncc(Cl)c(n1)NC2` [Example 17, 6-Chloro-2,4,8,19,23-pentaazatetracyclo[15.3.1.1(3,7).1(10,14)]tricosa-1(21),3(23),4,6,10(22),11,13,17,19-nonaen-13-amine] are 102 nM, 447 nM, 114 nM, 386 nM and more than 1000 nM.
In the case of `O=C1Nc2cccc(c2)CNc2nc(ncc2Cl)Nc2cccc1c2` [Example 4, 6-Chloro-2,4,8,15,23-pentaazatetracyclo[15.3.1.1(3,7).1(10,14)]tricosa-1(21),3(23),4,6,10(22),11,13,17,19-nonaen-16-one trifluoroacetate], the IC50 in assay [1] is 96 nM; in assay [2] (setting [5]), 104 nM; in assay [3], 21 nM; against TYK2, more than 1000 nM; in assay [4], more than 10000 nM.
`Clc1cnc2nc1NCc1cc(Br)cc(c1)OCCCc1cccc(c1)N2` [Example 16, 12-Bromo-6-chloro-15-oxa-2,4,8,25-tetraazatetracyclo[17.3.1.1(3,7).1(10,14)]pentacosa-1(23),3(25),4,6,10(24),11,13,19,21-nonaene]: the IC50 in assay [2] (setting [5]) is 5 nM; at TYK2, 149 nM; in assay [4] it was 280 nM.
Take `Clc1cnc2nc1NCc1cccc(c1)OCCOc1cccc(c1)N2` [Example 7, 6-Chloro-15,18-dioxa-2,4,8,25-tetraazatetracyclo[17.3.1.1(3,7).1(10,14)]pentacosa-1(23),3(25),4,6,10(24),11,13,19,21-nonaene trifluoroacetate]: the IC50 is 16 nM in assay [1]; 8.3 nM in assay [2] (setting [5]); 6.4 nM in assay [3]; 43 nM against TYK2; 2050 nM in assay [4].
`Clc1cnc2nc1NCCc1cccc(c1)OCCCc1cccc(c1)N2` [Example 12, 6-Chloro-16-oxa-2,4,8,26-tetraazatetracyclo[18.3.1.1(3,7).1(11,15)]hexacosa-1(24),3(26),4,6,11(25),12,14,20,22-nonaene]: the IC50 in assay [1] was 300 nM; in assay [3], 315 nM; against TYK2, 400 nM; in assay [4], more than 10000 nM.
On to `Clc1cnc2nc1NCc1cccc(c1)OCCc1cccc(c1)N2` [Example 2, 6-Chloro-15-oxa-2,4,8,24-tetraazatetracyclo[16.3.1.1(3,7).1(10,14)]tetracosa-1(22),3(24),4,6,10(23),11,13,18,20-nonaene trifluoroacetate], for which the IC50 is 13 nM in assay [1]; 10 nM in assay [2] (setting [5]); 9.2 nM in assay [3]; 35 nM on TYK2; 1530 nM in assay [4].
For `Clc1cnc2nc1NCc1cccc(c1)OCCCc1cccc(c1)N2` [Example 5, 6-Chloro-15-oxa-2,4,8,25-tetraazatetracyclo[17.3.1.1(3,7).1(10,14)]pentacosa-1(23),3(25),4,6,10(24),11,13,19,21-nonaene trifluoroacetate], the IC50 in assay [1] was 4.2 nM; in assay [2], 1.9 nM; in assay [3] it was 2.4 nM; on TYK2 it was 25 nM; in assay [4], 706 nM.
Turning to `Clc1cnc2nc1NCCc1cccc(c1)OCc1cccc(c1)N2` [Example 8, 19-Chloro-9-oxa-2,17,21,22-tetraazatetracyclo[16.3.1.1(3,7).1(10,14)]tetracosa-1(22),3(24),4,6,10(23),11,13,18,20-nonaene], the IC50 in assay [1] was 600 nM; in assay [3] it was 300 nM; at TYK2, 438 nM; in assay [4] it was more than 10000 nM.
As for `Clc1cnc2nc1NCc1cc(ccc1Br)OCCCc1cccc(c1)N2` [Example 14, 11-Bromo-6-chloro-15-oxa-2,4,8,25-tetraazatetracyclo[17.3.1.1(3,7).1(10,14)]pentacosa-1(23),3(25),4,6,10(24),11,13,19,21-nonaene], the IC50 in assay [1] was found to be 100 nM; in assay [2] (setting [5]), 91 nM; in assay [3], 57 nM; against TYK2, 300 nM; in assay [4], 8200 nM.
For the compound `Clc1cnc2nc1NCCCc1cccc(c1)OCCc1cccc(c1)N2` [Example 13, 21-Chloro-10-oxa-2,19,23,24-tetraazatetracyclo[18.3.1.1(3,7).1(11,15)]hexacosa-1(24),3(26),4,6,11(25),12,14,20,22-nonaene], the half-inhibitory concentration (IC50) in assay [1] was 32 nM; in assay [2] (setting [5]) it was 25 nM; in assay [3] it was 62 nM; at TYK2, 106 nM; in assay [4], more than 10000 nM.
Consider `O=S1(=O)Nc2cccc(c2)CNc2nc(ncc2Cl)Nc2cccc1c2` [Example 3, 6-Chloro-16-thia-2,4,8,15,23-pentaazatetracyclo[15.3.1.1(3,7).1(10,14)]tricosa-1(21),3(23),4,6,10(22),11,13,17,19-nonaene 16,16-dioxide trifluoroacetate], for which the IC50 in assay [1] is 300 nM; in assay [3] it was 325 nM; against TYK2, 830 nM; in assay [4], more than 10000 nM.
